Test results from patent US12507703B2, “Methods, devices and compositions for preserving human milk” (The Trustees of Princeton University, priority 2023, dated 2025).
“And” between values parts separate entries of the source, which are not always exact repeats. Equal values may be shown once. Where a name gives a salt, the structure may show the parent alone.

What follows are compounds tested on lipase (assay: Lipase/lipolysis assay (EnzChek Lipase Substrate, quenched BODIPY-fatty acid conjugate) on stored human milk; also: test concentration or dose not given here).

Row | Structure (SMILES) | Lipase (RFU)
1 | Oc1ccc2c(c1)OCO2 [Sesamol] | 995.7089 RFU
2 | COc1cc([C@@H]2Oc3c(O)cc([C@H]4Oc5cc(O)cc(O)c5C(=O)[C@@H]4O)cc3[C@H]2CO)ccc1O [Silychristin] | 921.666 RFU
3 | COc1cc(/C=C/C(=O)OCC[N+](C)(C)C)cc(OC)c1O.N#C[S-] [Sinapine (thiocyanate)] | 1052.349 RFU
4 | COc1cc(/C=C/C(=O)OCC[N+](C)(C)C)cc(OC)c1O [Sinapine] | 1084.597 RFU
5 | C=CC/C(=N/OS(=O)(=O)[O-])S[C@@H]1OC(CO)[C@@H](O)C(O)C1O.[K+] (some centres unmarked) [Sinigrin] | 1002.884 RFU
6 | Cc1c[nH]c2ccccc12 [Skatole] | 735.1893 RFU and 599.6554 RFU
7 | O=c1ccc2ccc(O[C@@H]3O[C@H](CO)[C@@H](O)[C@H](O)[C@H]3O)cc2o1 [Skimmin] | 1029.943 RFU
8 | C[C@@H]1CC[C@@]2(OC1)O[C@H]1C[C@H]3[C@@H]4CC[C@@H]5C[C@@H](O)CC[C@]5(C)[C@H]4CC[C@]3(C)[C@H]1[C@@H]2C [Smilagenin] | 790.1194 RFU
9 | CC(C)(O[C@@H]1O[C@H](CO)[C@@H](O)[C@H](O)[C@H]1O)[C@H]1Oc2cc3oc(=O)ccc3cc2[C@H]1O [Smyrindioloside] | 1066.572 RFU
10 | O=C([O-])c1ccccc1O.[Na+] [Sodium Salicylate] | 847.8959 RFU and 820.8026 RFU
11 | O=C([O-])O.[Na+] [Sodium bicarbonate] | 751.602 RFU
12 | O=C1O[C@H]([C@H](O)CO)C([O-])=C1O.[Na+] [Sodium erythorbate] | 904.5416 RFU
13 | CCCCCCCC/C=C\CCCCCCCC(=O)[O-].[Na+] [Sodium oleate] | 985.0339 RFU and 925.2134 RFU
14 | C[C@@H]1CC[C@@]2(NC1)O[C@H]1C[C@H]3[C@@H]4CC=C5C[C@@H](O)CC[C@]5(C)[C@H]4CC[C@]3(C)[C@H]1[C@@H]2C [Solasodine] | 1073.206 RFU
15 | CC1(C)C[C@H]2C3=CC[C@@H]4[C@@]5(C)CC[C@H](O)[C@](C)(CO)[C@@H]5CC[C@@]4(C)[C@]3(C)CC[C@@]2(C)[C@H](O)[C@@H]1O [Soyasapogenol A] | 1098.785 RFU
16 | CC1(C)C[C@@H](O)[C@]2(C)CC[C@]3(C)C(=CC[C@@H]4[C@@]5(C)CC[C@H](O)[C@](C)(CO)[C@@H]5CC[C@]43C)[C@@H]2C1 [Soyasapogenol B] | 1146.412 RFU
17 | CC(=O)OC[C@H]1O[C@@H](O[C@@H]2[C@@H](O)[C@H](O[C@@H]3[C@H](O)C(C)(C)C[C@H]4C5=CC[C@@H]6[C@@]7(C)CC[C@H](O[C@@H]8O[C@H](C(=O)O)[C@@H](O)[C@H](O)[C@H]8O[C@@H]8O[C@H](CO)[C@H](O)[C@H](O)[C@H]8O[C@@H]8O[C@H](CO)[C@@H](O)[C@H](O)[C@H]8O)[C@](C)(CO)[C@@H]7CC[C@@]6(C)[C@]5(C)CC[C@@]34C)OC[C@@H]2O)[C@H](OC(C)=O)[C@@H](OC(C)=O)[C@@H]1OC(C)=O [Soyasaponin Ab] | 976.6301 RFU
18 | COc1cc2ccc(=O)oc2c2ccoc12 [Sphondin] | 913.6372 RFU
19 | C[N+]1(C)CCC[C@H]1C(=O)[O-].Cl [Stachydrine hydrochloride] | 915.6673 RFU
20 | C[N+]1(C)CCC[C@H]1C(=O)[O-] [Stachydrine] | 1061.585 RFU

Row | Structure (SMILES) | Lipase (RFU)
21 | O.O.O.O.OC[C@H]1O[C@H](OC[C@H]2O[C@H](OC[C@H]3O[C@H](O[C@]4(CO)O[C@H](CO)[C@@H](O)[C@@H]4O)[C@H](O)[C@@H](O)[C@@H]3O)[C@H](O)[C@@H](O)[C@H]2O)[C@H](O)[C@@H](O)[C@H]1O [Stachyose (tetrahydrate)] | 648.6527 RFU
22 | OC[C@H]1O[C@H](OC[C@H]2O[C@H](OC[C@H]3O[C@H](O[C@]4(CO)O[C@H](CO)[C@@H](O)[C@@H]4O)[C@H](O)[C@@H](O)[C@@H]3O)[C@H](O)[C@@H](O)[C@H]2O)[C@H](O)[C@@H](O)[C@H]1O [Stachyose] | 882.4617 RFU
23 | CCCCCCCCCCCCCCCCCC(=O)O[C@H](CC(=O)[O-])C[N+](C)(C)C [Stearoylcarnitine] | 900.7392 RFU
24 | C=C1C[C@@]23CC[C@H]4[C@@](C)(CCC[C@@]4(C)C(=O)O)[C@@H]2CC[C@]1(O[C@@H]1O[C@H](CO)[C@@H](O)[C@H](O)[C@H]1O[C@@H]1O[C@H](CO)[C@@H](O)[C@H](O)[C@H]1O)C3 [Steviolbioside] | 1061.907 RFU
25 | COc1cc2oc(=O)ccc2cc1CC=C(C)C [Suberosin] | 1003.25 RFU
26 | CC1(C)[C@H](C(=O)[O-])N2C(=O)C[C@H]2S1(=O)=O.[Na+] [Sulbactam (sodium)] | 1191.707 RFU
27 | CC1(C)[C@H](C(=O)O)N2C(=O)C[C@H]2S1(=O)=O [Sulbactam] | 759.2536 RFU
28 | CC(=O)CCC=C(C)C [Sulcatone] | 1082.02 RFU
29 | O=S(=O)([O-])c1ccc(N=Nc2c(O)ccc3cc(S(=O)(=O)[O-])ccc23)cc1.[Na+].[Na+] [Sunset Yellow FCF] | 868.5434 RFU
30 | COc1cc(C=O)cc(OC)c1O [Syringaldehyde] | 938.0511 RFU and 949.8732 RFU
31 | COc1cc(/C=C/CO)cc(OC)c1O[C@@H]1O[C@H](CO)[C@@H](O)[C@H](O)[C@H]1O [Syringin] | 935.9617 RFU
32 | C[n+]1cccc(C(N)=O)c1 [TRIA-662] | 1140.39 RFU
33 | COc1ccc(-c2cc(=O)c3c(OC)c(OC)c(OC)c(OC)c3o2)cc1 [Tangeritin] | 1254.653 RFU
34 | C=C1CC[C@]2(C)CC[C@]3(C)[C@H](CC[C@@H]4[C@@]5(C)CC[C@H](O)C(C)(C)[C@@H]5CC[C@]43C)[C@H]2[C@@H]1C [Taraxasterol] | 974.5848 RFU
35 | C[C@H](CCC(=O)NCCS(=O)(=O)[O-])[C@H]1CC[C@H]2[C@@H]3[C@H](O)C[C@@H]4C[C@H](O)CC[C@]4(C)[C@H]3CC[C@]12C.[Na+] [Taurochenodeoxycholic acid (sodium)] | 1047.423 RFU
36 | C[C@H](CCC(=O)NCCS(=O)(=O)O)[C@H]1CC[C@H]2[C@@H]3[C@H](O)C[C@@H]4C[C@H](O)CC[C@]4(C)[C@H]3C[C@H](O)[C@]12C [Taurocholic Acid] | 1299.592 RFU and 949.1523 RFU and 900.9931 RFU
37 | C[C@H](CCC(=O)NCCS(=O)(=O)O)[C@H]1CC[C@H]2[C@@H]3[C@H](O)C[C@@H]4C[C@H](O)CC[C@]4(C)[C@H]3C[C@H](O)[C@]12C [Taurocholic acid (sodium salt hydrate)] | 1148.675 RFU
38 | C[C@H](CCC(=O)NCCS(=O)(=O)O)[C@H]1CC[C@H]2[C@@H]3[C@H](O)C[C@@H]4C[C@H](O)CC[C@]4(C)[C@H]3C[C@H](O)[C@]12C [Taurocholic acid (sodium)] | 1062.302 RFU and 748.8784 RFU
39 | C[C@H](CCC(=O)NCCS(=O)(=O)O)[C@H]1CC[C@H]2[C@@H]3[C@@H](O)C[C@@H]4C[C@H](O)CC[C@]4(C)[C@H]3CC[C@]12C.O.O [Tauroursodeoxycholate (dihydrate)] | 1204.528 RFU
40 | C[C@H](CCC(=O)NCCS(=O)(=O)[O-])[C@H]1CC[C@H]2[C@@H]3[C@@H](O)C[C@@H]4C[C@H](O)CC[C@]4(C)[C@H]3CC[C@]12C.[Na+] [Tauroursodeoxycholate (sodium)] | 939.6362 RFU

Row | Structure (SMILES) | Lipase (RFU)
41 | COc1cc(O)c2c(=O)cc(-c3ccccc3)oc2c1 [Tectochrysin] | 890.4365 RFU
42 | CCCCCCCCCCCCCC(=O)O[C@H](CC(=O)[O-])C[N+](C)(C)C [Tetradecanoylcarnitine] | 951.8251 RFU
43 | C[C@]12CC[C@@H](O)C[C@H]1CC[C@@H]1[C@@H]2[C@@H](O)C[C@@]2(C)[C@H]1CC[C@]2(O)C(=O)CO [Tetrahydrocortisol] | 1127.321 RFU
44 | O=S(=O)(O)SSS(=O)(=O)O [Tetrathionate] | 924.2846 RFU
45 | OP(O)(O)=S [Thiophosphate] | 918.3175 RFU and 750.1825 RFU
46 | O=S(O)(O)=S [Thiosulfate] | 1139.701 RFU
47 | O=CC[C@H](O)[C@H](O)CO [Thyminose] | 811.3551 RFU
48 | Cc1ccc(C(C)C)c(O)c1 [Thymol] | 1327.554 RFU and 943.6199 RFU
49 | CC(C)=CCC[C@H](C)[C@@H]1CC[C@]2(C)C3=C(CC[C@@]12C)[C@@]1(C)CC[C@H](O)C(C)(C)[C@@H]1CC3 [Tirucallol] | 1060.924 RFU
50 | C[C@H]1CC[C@]2(NC1)O[C@H]1C[C@H]3[C@@H]4CC[C@H]5C[C@@H](O)CC[C@]5(C)[C@H]4CC[C@]3(C)[C@H]1[C@@H]2C [Tomatidine] | 1057.071 RFU
51 | C[C@H]1CC[C@]2(NC1)O[C@H]1C[C@H]3[C@@H]4CC[C@H]5C[C@@H](O[C@@H]6O[C@H](CO)[C@H](O[C@@H]7O[C@H](CO)[C@@H](O)[C@H](O[C@@H]8OC[C@@H](O)[C@H](O)[C@H]8O)[C@H]7O[C@@H]7O[C@H](CO)[C@@H](O)[C@H](O)[C@H]7O)[C@H](O)[C@H]6O)CC[C@]5(C)[C@H]4CC[C@]3(C)[C@H]1[C@@H]2C [Tomatine] | 635.5707 RFU
52 | COc1cc(O[C@@H]2O[C@H](CO)[C@@H](O)[C@H](O)[C@H]2O)c2c(O)c(C(C)=O)c(C)cc2c1 [Torachrysone-8-O-b-D-glucoside] | 1039.734 RFU
53 | O=c1cc(-c2ccccc2)oc2cc(O)cc(O[C@@H]3O[C@H](CO)[C@@H](O)[C@H](O)[C@H]3O)c12 [Toringin] | 1102.623 RFU
54 | COc1ccc(C[C@H]2COC(=O)[C@]2(O)Cc2ccc(O[C@@H]3O[C@H](CO)[C@@H](O)[C@H](O)[C@H]3O)c(OC)c2)cc1OC [Tracheloside] | 940.7065 RFU
55 | COc1cc(-c2cc(=O)c3c(O)cc(O)cc3o2)cc(OC)c1O [Tricin] | 691.2218 RFU
56 | CCOP(=O)(OCC)OCC [Triethyl Phosphate] | 963.8293 RFU
57 | CCCCC/C=C\C/C=C\CCCCCCCC(=O)OCC(COC(=O)CCCCCCC/C=C\C/C=C\CCCCC)OC(=O)CCCCCCC/C=C\C/C=C\CCCCC [Trilinolein] | 834.4039 RFU
58 | O=C(CCc1ccc(O)cc1)c1c(O)cc(O[C@@H]2O[C@H](CO)[C@@H](O)[C@H](O)[C@H]2O)cc1O [Trilobatin] | 813.3377 RFU and 1211.862 RFU
59 | C[N+](C)(C)[O-] [Trimethylamine N-oxide] | 948.4231 RFU and 1147.152 RFU
